{
  "source": "patent US20170197977A9",
  "about": "“COMPOSITIONS AND METHODS FOR TREATING NEURODEGENERATIVE DISEASE” (COGNITION THERAPEUTICS, INC., priority 2011, published 2017)",
  "key": {"[1]": {"test": "In vivo PK, plasma and brain levels", "details": "male, C57BL/6, mouse", "from_the_text": "A plasma calibration curve was generated. […] Subcutaneous compound administration was accomplished by […]. Per oral administration was accomplished by gastric gavage. Intravenous administration was accomplished via jugular catheter. […] A brain calibration curve was generated."}, "[2]": {"test_system": "caspase-3 activity in SKOV-3 human ovarian cancer cells", "test": "Caspase-3 activity assay in tumor cells", "type": "cell-based"}, "[3]": {"test_system": "caspase-3 activity in neurons", "test": "Caspase-3 activity assay in neurons", "type": "cell-based", "experimental": "The activation of endogenous caspase-3 by sigma-2 receptor ligands was measured using the Caspase-3 Colorimetric Activity Assay Kit (Milipore, Billerica, Mass.) according to the manufacture's protocol. Briefly, MDA-MB 435 or MDA-MB23I cells were plated at 0.5×10^6 cells 100 mm dish. 24 hours after plating, sigma-2 ligands were added to the culture dishes to induce caspase 3 activation. The final concentration of the sigma-2 ligand was its EC50. 24 hours after treatment, cells were harvested, lysed in 300 uL of Cell Lysis Buffer, and centrifuged for 5 minutes at 10,000×g. Supernatant was collected and incubated with caspase-3 substrate, DEVD-pNA, for 2 hours at 37° C. […] Compounds IXa,IXb and II behaved like sigma-2 […] in both cancer cells and neurons."}, "sigma-1 receptor": {"biological_target": "T1, sigma-1 receptor (Cavia porcellus, UniProt Q60492)", "T1 construct": "from tissue; host or cells: guinea pig brain membrane homogenates", "T1 sequence (Q60492 whole entry)": "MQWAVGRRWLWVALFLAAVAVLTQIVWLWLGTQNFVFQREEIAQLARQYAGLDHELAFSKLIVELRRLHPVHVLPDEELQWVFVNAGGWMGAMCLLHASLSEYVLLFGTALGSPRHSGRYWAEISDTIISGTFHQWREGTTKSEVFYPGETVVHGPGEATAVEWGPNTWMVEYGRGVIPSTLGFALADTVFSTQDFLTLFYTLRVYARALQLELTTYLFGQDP", "test": "Competitive radioligand binding assay 2, guinea pig brain membrane homogenates", "details": "read-out: Sigma-1 (Ki, nM) ±mean SEM", "experimental": "The affinity of candidate sigma-2 ligand compounds at sigma-1 and sigma-2 receptors was also determined by displacement of different known labeled sigma-2 or sigma-1 ligands. Filtration assays were conducted according the previously published procedure (Xu, et al., 2005). Test compounds were dissolved in N,N-Dimethylformamide (DMF), dimethyl sulfoxide (DMSO) or ethanol and then diluted in 50 mM Tris-HCl pH 7.4 buffer containing 150 mM NaCl and 100 mM EDTA. Membrane homogenates were made from guinea pig brain for sigma-1 binding assay and rat liver for sigma-2 binding assay. Membrane homogenates were diluted with 50 mM Tris-HCl buffer, pH 8.0 and incubated at 25° C. in a total volume of 150 uL in 96 well plates with the radioligand and test compounds with concentrations ranging from 0.1 nM to 10 uM. […] A Wallac 1450 MicroBeta liquid scintillation counter (Perkin Elmer, Boston, Mass.) was used to quantitate the bound radioactivity.\nThe binding affinity, Ki values was calculated using the method of Cheng and Prusoff. […]"}, "CYP2D6, CYP3A4, CYP2C19": {"test_system": "CYP2D6, CYP3A4, CYP2C19", "test": "in vitro"}, "[4]": {"test_system": "Abeta oligomer-induced synapse loss", "test": "Synapse loss assay (synaptophysin puncta) in primary neurons", "type": "cell-based, rat", "experimental": "In this assay, Abeta oligomers were brought in contact with mature primary neurons in culture and their binding was determined by immunohistochemistry (anti-Abeta antibody) and quantified by image processing. The amount of Abeta in neuronal dendrites is assessed by counting the number of labeled puncta on the neuritis. […] This labeling is associated with synapses, co-localizing with the post-synaptic scaffold protein PSD-95 (Lacor et al., '04). […] The number of synapses can also be quantified in this assay by immunofluorochemistry. Similar procedures for binding assays can be found in the literature. […] Review.\nPrimary hippocampal neuronal culture was established as in the membrane trafficking assay above. […] Pretreatment with compounds to be tested lasted for 1 hr and addition of Abeta oligomers or no oligomer (vehicle alone) in a final concentration of 70 ul was followed by incubation for an additional 23 hrs.\nThe plates were then washed 3× with PBS for 5 min each. The plates were blocked at RT for 1 hr in 5% goat serum and 0.5% Triton X-100 in PBS. […] Primary antibodies were incubated overnight at 4° C. The plates were then washed 3× with PBS for 5 min each. […] Secondary antibodies were incubated at RT for 1 hr. The plates were washed once with PBS. DAPI (4′,6-diamidino-2-phenylindole, Invitrogen) was then applied at 0.03 ug/ul and incubated at RT for 5 min, then washed with PBS.\nImages were captured and analyzed with the Cellomics VTI automated microscope platform, using the Neuronal Profiling algorithm. For statistical analysis, a Tukey-Kramer pair-wise comparison with unequal variance was used."}, "[5]": {"biological_target": "T2, sigma 2 (agonist radioligand) (Rattus norvegicus, UniProt Q5U3Y7)", "T2 sequence (Q5U3Y7 1-176)": "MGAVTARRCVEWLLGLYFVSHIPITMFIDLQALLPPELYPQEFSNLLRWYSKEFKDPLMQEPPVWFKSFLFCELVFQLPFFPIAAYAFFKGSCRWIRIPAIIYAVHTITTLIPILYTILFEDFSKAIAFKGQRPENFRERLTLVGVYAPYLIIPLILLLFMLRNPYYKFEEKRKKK", "test": "Receptor binding assay, displacement of known radioligand", "details": "read-out: % Inhibition of Control"}},
  "data": [
    {"smiles": "COc1cc(CCC(C)NCc2ccc(C(F)(F)F)cc2)ccc1O", "note": "(stereo not shown) [Compound II]", "values": [
      {"measurement": "Brain concentration as multiple of the efficacious brain dose in vivo", "setting": "[1]; iv, 10 mg/kg, 180 min", "value": 57, "unit": "×"},
      {"measurement": "Amount in the brain as multiple of the efficacious dose", "setting": "[1]; po, 3 h", "value": "~40", "unit": "×"},
      {"measurement": "Block of caspase-3 activation caused by sigma-2 receptor agonist SV-119", "setting": "[2]", "value": "do not block caspase-3 activation"},
      {"measurement": "Induction of caspase-3 activity", "setting": "[2]", "value": "did not induce caspase-3 activity"},
      {"measurement": "Induction of caspase-3 activity", "setting": "[3]", "value": "did not induce caspase-3 activity"},
      {"measurement": "Block of caspase-3 activation caused by sigma-2 receptor agonist SV-119", "setting": "[3]; 24 hours", "value": "blocked caspase-3 activation"},
      {"measurement": "Ki", "setting": "sigma-1 receptor", "value": "108 ± 19.9", "unit": "nM"},
      {"measurement": "inhibition at 10 µM", "setting": "CYP2D6, CYP3A4, CYP2C19", "value": "46 to 73", "unit": "%"},
      {"measurement": "Share of Abeta oligomer-induced synapse loss eliminated", "setting": "[4]; 5 μM of compound", "value": 100, "unit": "%"},
      {"measurement": "Block synapse loss", "setting": "[4]; Table 10B", "value": 100, "unit": "%"},
      {"measurement": "Synapse number when dosed without Abeta oligomers", "setting": "[4]; compound in vehicle alone", "value": "No effect"},
      {"measurement": "Abeta oligomer-induced synapse loss", "setting": "[4]; in words", "value": "completely eliminated this synaptic regression"},
      {"measurement": "inhibition at 10 µM", "setting": "[5]", "value": 89, "unit": "%"}
    ]}
  ]
}
